Laboratory results published in patent US20240408169A1 (priority 2023, published 2024).
Where two headings read alike, the source gives them in different places. *1 amine or outer side, *2 acyl side, *3 side chain or, on linkers, in order; H or OH if unused. Where a SMILES comes first, the peptide text is derived from it. Bridges are numbered along the chain shown (N, C = ends). [ ]: non-standard residue; d: D form. The star is where a group is joined. NMePhe(2-(4-MorPh),5-Cl) = CN[C@@H](Cc1cc(Cl)ccc1-c1ccc(N2CCOCC2)cc1)C(=O)O; X92 = CN1CCN(C(=O)c2ccc(-c3ccc(Cl)cc3C[C@@H](C(=O)[*:2])N(C)[*:1])cc2)CC1; X11 = CN1CCN(c2ccc(-c3ccc(Cl)cc3C[C@@H](C(=O)[*:2])N(C)[*:1])cc2)CC1; X46 = CN([C@@H](Cc1cc(Cl)ccc1-c1ccc(S(C)(=O)=O)cc1)C(=O)[*:2])[*:1]; X58 = CC(C)C(=O)N1CC=C(c2ccc(Cl)cc2C[C@@H](C(=O)[*:2])N(C)[*:1])CC1; X49 = CN1CCc2ccc(-c3ccc(Cl)cc3C[C@@H](C(=O)[*:2])N(C)[*:1])cc2C1; NMehhhLys(Me) = CN([C@@H](CCCCCCCN(C)[*:3])C(=O)[*:2])[*:1]; X64 = CN([C@@H](Cc1cc(Cl)ccc1OC1(C)CC1)C(=O)[*:2])[*:1]; cBuCO(3,3-F2-1-CF3) = O=C(C1(C(F)(F)F)CC(F)(F)C1)*; Pro(trans-4-F) = O=C(O)[C@@H]1C[C@@H](F)CN1; Gly(cPr) = N[C@H](C(=O)O)C1CC1; X77 = CC(F)(C(=O)*)C(F)(F)F

Legend:
CyclinB1/CDK1 = target: T1, CyclinB1/CDK1 (Homo sapiens, UniProt P14635); experiment: Fluorescence Polarization (FP) competitive binding assay, Cyclin B1/Cdk1;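 further: fluorescence polarization read after equilibration at room temperature, with IC50 taken from serially diluted dose-response curves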
T1 construct: purchased Eurofins, discovery 14-450

CyclinA2/CDK2 = target: T2, CyclinA2/CDK2 (Homo sapiens, UniProt P20248); experiment: Fluorescence Polarization (FP) competitive binding assay, Cyclin A2/Cdk2;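 further: plates equilibrated two hours at room temperature before polarization reading, IC50 fitted from eight-concentration compound titration curves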
T2 construct: purchased CRELUX Protein Services

OVCAR3 cells = experiment: MTT proliferation assay, OVCAR3; type: cell-based; settings: 5 days compound exposure, 1:3 serial dilution starting at 10 μM;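 further: compound given as an 8- or 10-point series, one day after plating, with exposure covering roughly 3-4 cell doublings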
NCI-H1048 cells = experiment: MTT proliferation assay, NCI-H1048; type: cell-based; settings: 5 days compound exposure, 1:3 serial dilution starting at 10 μM;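 further: Dose-response in 96-well plates over 8 or 10 concentration points, with exposure spanning 3-4 cell doublings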
CyclinE1/CDK2 = target: T3, CyclinE1/CDK2 (Homo sapiens, UniProt P24864); experiment: Fluorescence Polarization (FP) competitive binding assay, Cyclin E1/Cdk2;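 further: readings taken after two-hour equilibration at room temperature in HEPES buffer with NaCl, DTT, NP-40 and BSA, IC50 fitted from eight-concentration serial dilution series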
T3 construct: purchased Eurofins, discovery 14-475

WI-38 cells = experiment: MTT proliferation assay, WI-38; type: cell-based; settings: 3 days compound exposure, 1:3 serial dilution starting at 10 μM;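 further: Eight- or ten-point dilution series, with exposure length chosen to span about three to four cell doublings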
[1] = 10 nM Cyclin B1/Cdk1, 2 nM FAM probe; average of 2-3 independent experiments; read-out: Cyclin B FP IC50
[2] = 8 nM Cyclin A2/Cdk2, 2 nM FAM probe, average of 2-3 independent experiments, read-out: Cyclin A FP IC50
[3] = 10 nM Cyclin E1/Cdk2, 2 nM FAM probe, average of 2-3 independent experiments, read-out: Cyclin E FP IC50

Compound | IC50 (CyclinB1/CDK1; [1]) [nM] | IC50 (CyclinA2/CDK2; [2]) [nM] | GI50 (OVCAR3 cells) [nM] | GI50 (NCI-H1048 cells) [nM] | IC50 (CyclinE1/CDK2; [3]) [nM] | GI50 (WI-38 cells) [nM] | IC50 (CyclinB1/CDK1; read-out: Cyclin B FP IC50; 10 nM Cyclin B1/Cdk1, 2 nM FAM probe; average of 2-3 independent experiments) [nM] | IC50 (CyclinA2/CDK2) [nM] | IC50 (CyclinE1/CDK2) [nM]
CC(C)C[C@@H]1NC(=O)[C@@H](N(C)C(=O)[C@@H](NC(=O)[C@@H]2C[C@@H](F)CN2C(=O)C2(C(F)(F)F)CC(F)(F)C2)C2CC2)CCCCCCCN(C)C(=O)[C@H](Cc2cc(Cl)ccc2-c2ccc(C(=O)N3CCN(C)CC3)cc2)N(C)C1=O [Example 390] ({cBuCO(3,3-F2-1-CF3)}-[Pro(trans-4-F)][Gly(cPr)][NMehhhLys(Me)]L[X92]; lactam 3-C) | 20 | 20 | 20 | 30 | 870 | 9240 |  |  | 
CC(C)C[C@@H]1NC(=O)[C@@H](N(C)C(=O)[C@@H](NC(=O)[C@@H]2C[C@@H](F)CN2C(=O)C2(C(F)(F)F)CC(F)(F)C2)C2CC2)CCCCCCCN(C)C(=O)[C@H](Cc2cc(Cl)ccc2-c2ccc(S(C)(=O)=O)cc2)N(C)C1=O [Example 262] ({cBuCO(3,3-F2-1-CF3)}-[Pro(trans-4-F)][Gly(cPr)][NMehhhLys(Me)]L[X46]; lactam 3-C) | 20 | 20 | 20 | 10 | 910 | 16200 |  |  | 
CC(C)C[C@@H]1NC(=O)[C@@H](N(C)C(=O)[C@@H](NC(=O)[C@@H]2C[C@@H](F)CN2C(=O)C2(C(F)(F)F)CC(F)(F)C2)C2CC2)CCCCCCCN(C)C(=O)[C@H](Cc2cc(Cl)ccc2OC2(C)CC2)N(C)C1=O [Example 259] ({cBuCO(3,3-F2-1-CF3)}-[Pro(trans-4-F)][Gly(cPr)][NMehhhLys(Me)]L[X64]; lactam 3-C) | 20 | 70 | 110 | 110 | 280 | 10400 |  |  | 
COCn1cc(-c2ccc(Cl)cc2C[C@H]2C(=O)N(C)CCCCC=CC[C@H](N(C)C(=O)[C@@H](NC(=O)[C@@H]3C[C@@H](F)CN3C(=O)C3(C(F)(F)F)CCC3)C3CC3)C(=O)N[C@@H](CC(C)C)C(=O)N2C)cn1 [Example 80] | 20 | 40 | 30 | 30 | 300 | 11600 |  |  | 
CC(C)C[C@@H]1NC(=O)[C@@H](N(C)C(=O)[C@@H](NC(=O)[C@@H]2C[C@@H](F)CN2C(=O)C(C)(F)C(F)(F)F)C2CC2)CCCCCCCN(C)C(=O)[C@H](Cc2cc(Cl)ccc2-c2ccc(N3CCOCC3)cc2)N(C)C1=O (stereo partly drawn) [Example 377] (X77-[Pro(trans-4-F)][Gly(cPr)][NMehhhLys(Me)]L[NMePhe(2-(4-MorPh),5-Cl)]; lactam 3-C) | 20 | 20 | 10 | 10 | 340 | 8160 |  |  | 
CCN(C(=O)[C@@H](NC(=O)[C@@H]1C[C@@H](F)CN1C(=O)C1(C(F)(F)F)CCC1)C1CC1)[C@H]1CCCCCCCN(C)C(=O)[C@H](Cc2cc(Cl)cnc2OC2CC2)N(C)C(=O)[C@H](CC(C)C)NC1=O [Example 220] |  |  | 70 | 30 |  | 5200 | 20 | 90 | 680
CC(C)C[C@@H]1NC(=O)[C@@H](N(C)C(=O)[C@@H](NC(=O)[C@@H]2C[C@@H](F)CN2C(=O)C2(C(F)(F)F)CC(F)(F)C2)C2CC2)CCCCCCCN(C)C(=O)[C@H](Cc2cc(Cl)ccc2-c2ccc3c(c2)CN(C)CC3)N(C)C1=O [Example 406] ({cBuCO(3,3-F2-1-CF3)}-[Pro(trans-4-F)][Gly(cPr)][NMehhhLys(Me)]L[X49]; lactam 3-C) | 20 | 20 | 40 | 20 | 1780 | 3350 |  |  | 
CC(C)C[C@@H]1NC(=O)[C@@H](N(C)C(=O)[C@@H](NC(=O)[C@@H]2C[C@@H](F)CN2C(=O)C2(C(F)(F)F)CC(F)(F)C2)C2CC2)CCCCCCCN(C)C(=O)[C@H](Cc2cc(Cl)ccc2C2=CCN(C(=O)C(C)C)CC2)N(C)C1=O [Example 143] ({cBuCO(3,3-F2-1-CF3)}-[Pro(trans-4-F)][Gly(cPr)][NMehhhLys(Me)]L[X58]; lactam 3-C) | 20 | 20 | 20 | 10 | 940 | 5180 |  |  | 
CC(C)C[C@@H]1NC(=O)[C@@H](N(C)C(=O)[C@@H](NC(=O)[C@@H]2C[C@@H](F)CN2C(=O)C2(C(F)(F)F)CC(F)(F)C2)C2CC2)CCCCCCCN(C)C(=O)[C@H](Cc2cc(Cl)ccc2-c2ccc(N3CCN(C)CC3)cc2)N(C)C1=O [Example 336] ({cBuCO(3,3-F2-1-CF3)}-[Pro(trans-4-F)][Gly(cPr)][NMehhhLys(Me)]L[X11]; lactam 3-C) | 20 | 20 | 10 | 10 | 420 | 2480 |  |  | 
